Results taken from patent US6710048B2, “Pyrazine derivatives as modulators of tyrosine kinases” (Ortho-McNeil Pharmaceutical, Inc., priority 2000, dated 2004).
Read-outs that look alike come from different tables or passages of the source.

What was measured:
[1] = biological target: T1, CDK1 (cyclin dependent kinase 1) / cyclin B (Homo sapiens, UniProt P06493); assay: CDK1 kinase assay; format: biochemical
T1 construct: purchased New England Biolabs 6020; host or cells: insect cells
Experimental: (§1) The term n.d. means not tested.
Assays to test compound inhibition of other kinases were preformed using methods that measure the amount of phosphorylation of a biotinylated peptide substrate. Biotinylated peptide substrates were selected from the literature as appropriate for the enzyme being evaluated. The general procedure used to assay for kinase activity is as follows: A kinase reaction mix was prepared in 50 mM Tris-HCl pH=8, 10 mM MgCl2, 0.1 mM NaVO4, 1 mM DTT, 5-10 μM ATP, 0.25-1 μM biotinylated peptide substrate, 0.2-0.8 μCuries per well ^33P-γ-ATP [2000-3000 Ci/mmol]. Assay conditions vary slightly for each protein kinase, for example, insulin receptor kinase requires 10 mM MnCl2 for activity and Calmodulin-dependent protein kinase requires calmodulin and 2 mM CaCl2. The reaction mixture was dispensed into the wells of a streptavidin coated Flashplate and 1 μl drug stock in 100% DMSO was added to a 100 μl reaction volume resulting in a final concentration of 1% DMSO in the reaction. Enzyme was diluted in 50 mM Tris-HCl pH=8.0, 0.1% BSA and added to each well. The reaction was incubated for one hour at 30° C. in the presence of compound. After one hour the reaction mix was aspirated from the plate and the plate was washed with PBS containing 100 mM EDTA. The plate was read on a scintillation counter to determine ^33P-γ-ATP incorporated into the immobilized peptide. […] A maximum and minimum signal for the assay was determined on each plate. The IC50 was calculated from the dose response curve of the percent inhibition of the maximum signal in the assay according to the formula [max signal−background/test compound signal−background (100)=% inhibition] by graphing the percent inhibition against the log concentration of test compound. Known inhibitor compounds appropriate for the kinase being assayed were also included on each plate.
VEGF-R (vascular endothelial growth factor receptor-2) is a fusion protein containing a polyhistidine tag at the N-terminus followed by amino acids 786-1343 of the rat VEGF-R2 kinase domain (GenBank Accession #U93306). CDK1 (cyclin dependent kinase 1) is isolated from insect cells expressing both the human CDK1 catalytic subunit and its positive regulatory subunit cyclin B (New England Biolabs, Beverly, Mass., Cat. #6020). CDK4 (cyclin dependent kinase 4) contains amino acids 769 to 921 of the mouse […] protein found in the GST-retinoblastoma protein construct (Santa Cruz Biotechnology, Santa Cruz, Calif.; Cat. #SC-4112). Insulin Receptor Kinase consists of residues 941-1313 of the cytoplasmic domain of the beta-subunit of the human insulin receptor (BIOMOL, Plymouth Meeting, Pa., Cat. #SE-195). Protein Kinase A is the catalytic subunit of cAMP dependent protein kinase-A purified from bovine heart (Upstate Biotech, Lake Placid, N.Y., Cat#14-114). PKC (protein kinase-C) is the gamma or beta isoform of the human protein produced in insect cells (BIOMOL, Plymouth Meeting, Pa., Cat. #SE-143). Casein Kinase 1 is a truncation at amino acid 318 of the C-terminal portion of the rat CK1 delta isoform produced in E.coli (New England Biolabs, Beverly, Mass., Cat. #6030). Casein Kinase 2 includes the alpha and beta subunits of the human CK2 protein produced in E.coli (New England Biolabs, Beverly, Mass., Cat. #6010). Calmodulin Kinase (calmodulin-dependent protein kinase 2) is a truncated version of the alpha subunit of the rat protein produced in insect cells (New England Biolabs, Beverly, Mass., Cat. #6060). Glycogen Synthase Kinase-3 is the beta isoform of the rabbit enzyme produced in E. coli (New England Biolabs, Beverly, Mass., Cat. #6040). MAP Kinase is the rat ERK-2 isoform containing a polyhistidine tag at the N-terminus produced in E. coli. and activated by phosphorylation with MEK1 prior to purification (BIOMOL, Plymouth Meeting, Pa., Cat. #SE-137). EGFR (epidermal growth factor receptor) is purified from human A431 cell membranes (Sigma, St. Louis, Mo., Cat.# E3641). […]

[2] = biological target: T2, VEGF-R (vascular endothelial growth factor receptor-2) (Rattus norvegicus, UniProt O08775); assay: VEGF-R screening assay (33P FlashPlate kinase assay); format: biochemical
T2 construct: polyhistidine (6xHis) (N)
Experimental: A kinase reaction mixture was prepared containing 50 mM Tris-HCl pH=8, 10 mM MgCl2, 0.1 mM NAPO4, 1 mM DTT, 10 μM ATP, 0.025 μM biotinylated peptide substrate and 0.8 μCuries per well ^33P-γ-ATP [2000-3000 Ci/mmol]. 70 μl of the kinase reaction mixture was dispensed into the well of a streptavidin coated FlashPlate™ (Cat. # SMP103, NEN, Boston, Mass.). Then 1 μl of test compound stock in 100% DMSO was added to the wells resulting in a final concentration of 1% DMSO in the reaction with a 100 μl final reaction volume. Next, soluble rat tyrosine kinase containing an N-terminal 6×HIS tag was diluted in 50 mM Tris-HCl pH=8.0, 0.1% BSA at a concentration of 5 ng per microliter and 30 μl (150 ng enzyme per test well) was added to each well to initiate the reaction. The reaction was incubated for one hour at 30° C. At the end of the 1-hour incubation, the reaction was terminated by aspirating the reaction mixture from the plate and washing the wells twice with PBS containing 100 mM EDTA. The PLCI biotinylated peptide substrate becomes immobilized on the Flashplate™ and the incorporation of ^33P-γ-ATP was measured by reading the plate on a scintillation counter. Inhibition of the enzymatic activity of the VEGF-R was measured by observing a reduced amount of ^33P-γ-ATP incorporated into the immobilized peptide.
as §1
Assays to test compound inhibition of other kinases were preformed using methods that measure the amount of phosphorylation of a biotinylated peptide substrate. Biotinylated peptide substrates were selected from the literature as appropriate for the enzyme being evaluated. The general procedure used to assay for kinase activity is as follows: A kinase reaction mix was prepared in 50 mM Tris-HCl pH=8, 10 mM MgCl2, 0.1 mM NaVO4, 1 mM DTT, 5-10 μM ATP, 0.25-1 μM biotinylated peptide substrate, 0.2-0.8 μCuries per well ^33P-γ-ATP [2000-3000 Ci/mmol]. Assay conditions vary slightly for each protein kinase, for example, insulin receptor kinase requires 10 mM MnCl2 for activity and Calmodulin-dependent protein kinase requires calmodulin and 2 mM CaCl2. The reaction mixture was dispensed into the wells of a streptavidin coated Flashplate and 1 μl drug stock in 100% DMSO was added to a 100 μl reaction volume resulting in a final concentration of 1% DMSO in the reaction. Enzyme was diluted in 50 mM Tris-HCl pH=8.0, 0.1% BSA and added to each well. The reaction was incubated for one hour at 30° C. in the presence of compound. After one hour the reaction mix was aspirated from the plate and the plate was washed with PBS containing 100 mM EDTA. The plate was read on a scintillation counter to determine ^33P-γ-ATP incorporated into the immobilized peptide. Test compounds were assayed in duplicate at 8 concentrations [100 tM, 10 μM, 1 μM, 100 nM, 10 nM, 1 nM, 100 μM, 10 μM]. A maximum and minimum signal for the assay was determined on each plate. The IC50 was calculated from the dose response curve of the percent inhibition of the maximum signal in the assay according to the formula [max signal−background/test compound signal−background (100)=% inhibition] by graphing the percent inhibition against the log concentration of test compound. Known inhibitor compounds appropriate for the kinase being assayed were also included on each plate.
VEGF-R (vascular endothelial growth factor receptor-2) is a fusion protein containing a polyhistidine tag at the N-terminus followed by amino acids 786-1343 of the rat VEGF-R2 kinase domain (GenBank Accession #U93306). CDK1 (cyclin dependent kinase 1) is isolated from insect cells expressing both the human CDK1 catalytic subunit and its positive regulatory subunit cyclin B (New England Biolabs, Beverly, Mass., Cat. #6020). CDK4 (cyclin dependent kinase 4) contains amino acids 769 to 921 of the mouse […] protein found in the GST-retinoblastoma protein construct (Santa Cruz Biotechnology, Santa Cruz, Calif.; Cat. #SC-4112). […]

[3] = Tables 1-3, >10 or >100 = no 50% inhibition at highest dose tested, read-out: CDK IC50
[4] = Tables 1-3, >10 or >100 = no 50% inhibition at highest dose tested, read-out: VEGF-R IC50
[5] = Table 4 kinase selectivity, 10 = approximate value, read-out: IC50, Assay 2 CDK1
[6] = Table 4 kinase selectivity, read-out: IC50, Assay 1 VEGF-R

T2 sequence (O08775 786-1343): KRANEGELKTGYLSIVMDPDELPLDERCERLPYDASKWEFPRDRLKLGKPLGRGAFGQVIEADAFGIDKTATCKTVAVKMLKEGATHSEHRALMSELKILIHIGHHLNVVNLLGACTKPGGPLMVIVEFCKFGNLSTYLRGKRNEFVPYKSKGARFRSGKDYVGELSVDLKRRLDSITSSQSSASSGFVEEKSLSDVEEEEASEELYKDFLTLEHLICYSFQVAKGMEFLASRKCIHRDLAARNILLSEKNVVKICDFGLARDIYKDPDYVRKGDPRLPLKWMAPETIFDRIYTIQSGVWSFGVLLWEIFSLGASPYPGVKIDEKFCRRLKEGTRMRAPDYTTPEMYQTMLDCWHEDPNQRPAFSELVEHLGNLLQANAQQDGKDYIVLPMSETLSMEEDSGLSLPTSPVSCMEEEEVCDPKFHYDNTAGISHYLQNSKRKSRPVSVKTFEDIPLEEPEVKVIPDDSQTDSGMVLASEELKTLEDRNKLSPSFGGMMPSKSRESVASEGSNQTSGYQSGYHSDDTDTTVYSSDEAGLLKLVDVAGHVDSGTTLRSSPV
T1 sequence (P06493 whole entry): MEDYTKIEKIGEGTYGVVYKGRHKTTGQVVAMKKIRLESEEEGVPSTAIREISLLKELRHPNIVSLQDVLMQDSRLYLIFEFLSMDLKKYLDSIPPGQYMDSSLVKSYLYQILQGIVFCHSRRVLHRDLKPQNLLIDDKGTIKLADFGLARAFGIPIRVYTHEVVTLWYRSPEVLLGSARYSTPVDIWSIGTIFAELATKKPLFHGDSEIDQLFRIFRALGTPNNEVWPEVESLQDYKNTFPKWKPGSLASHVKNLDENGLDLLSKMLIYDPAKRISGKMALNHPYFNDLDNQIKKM
T1 sequence (P14635 whole entry partner): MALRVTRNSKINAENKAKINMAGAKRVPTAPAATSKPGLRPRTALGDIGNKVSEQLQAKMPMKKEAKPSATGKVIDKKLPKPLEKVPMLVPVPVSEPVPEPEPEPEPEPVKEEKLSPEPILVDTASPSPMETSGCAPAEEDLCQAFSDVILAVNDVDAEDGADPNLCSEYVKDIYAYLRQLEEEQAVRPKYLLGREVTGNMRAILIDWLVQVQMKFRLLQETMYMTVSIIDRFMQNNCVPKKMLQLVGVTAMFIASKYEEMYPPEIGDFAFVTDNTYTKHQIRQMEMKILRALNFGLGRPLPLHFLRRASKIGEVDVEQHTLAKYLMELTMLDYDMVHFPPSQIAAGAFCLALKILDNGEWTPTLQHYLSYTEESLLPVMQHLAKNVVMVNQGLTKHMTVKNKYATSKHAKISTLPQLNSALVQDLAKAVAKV

Row | Compound | IC50 [1, 3] [µM] | IC50 [2, 4] [µM] | IC50 [1, 5] [µM] | IC50 [2, 6] [µM]
1 | Nc1cncc(-c2cncc(Nc3cccc(Cl)c3)n2)c1 [Cmd 5] | 11.7 | 1.16 | – | –
2 | OCCCNc1cncc(-c2cncc(Oc3cccc(Cl)c3)n2)c1 [Cmd 96] | > 10 | > 10 | – | –
3 | OCCCNc1cncc(-c2cncc(Nc3cccc(F)c3)n2)c1 [Cmd 52] | ~100 | 0.17 | – | –
4 | CCOC(=O)c1cncc(-c2cncc(Nc3cccc(Cl)c3)n2)c1 [Cmd 1] | > 10 | – | – | –
5 | O=C(Nc1cncc(-c2cncc(Nc3cccc(Cl)c3)n2)c1)N1CCCC1 [Cmd 74] | > 10 | 0.578 | – | –
6 | CCOCCCNC(=O)c1cncc(-c2cncc(Nc3cccc(Cl)c3)n2)c1 [Cmd 40] | > 100 | > 100 | – | –
7 | COCCOCCNc1cncc(-c2cncc(Nc3cccc(Cl)c3)n2)c1 [Cmd 85] | > 10 | 0.085 | > 10 | 0.085
8 | Clc1ccc(Nc2cncc(-c3cncc(NCCCc4ccncc4)c3)n2)cc1Cl [Cmd 89] | > 10 | 0.268 | – | –
9 | Clc1cccc(Nc2cncc(-c3cncc(NCCCN4CCN(c5cccc(Cl)c5)CC4)c3)n2)c1 [Cmd 86] | > 10 | > 10 | – | –
10 | CC(=O)Nc1ncc(NCCCO)cc1-c1cncc(Nc2cccc(Cl)c2)n1 [Cmd 109] | > 10 | > 10 | – | –
11 | Clc1ccc(Nc2cncc(-c3cncc(NCCCc4ccncc4)c3)n2)cc1 [Cmd 87] | > 10 | 1 | – | –
12 | N#Cc1ncc(NCCCO)cc1-c1cncc(Nc2cccc(Cl)c2)n1 [Cmd 111] | > 10 | > 10 | – | –
13 | OCCOCCOCCNc1cncc(-c2cncc(Nc3cccc(Cl)c3)n2)c1 [Cmd 78] | > 10 | 0.282 | – | –
14 | CN(C)CCNC(=O)c1cncc(-c2cncc(Nc3cccc(Cl)c3)n2)c1 [Cmd 38] | 3.69 | 4.3 | – | –
15 | COc1ccc(Nc2cncc(-c3cncc(NCCCc4ccncc4)c3)n2)cc1 [Cmd 88] | > 10 | 0.154 | – | –
16 | CCOC(=O)CCCNc1cncc(-c2cncc(Nc3cccc(Cl)c3)n2)c1 [Cmd 84] | 2.03 | 0.125 | 2.03 | 0.125
17 | Nc1ncc(NCCCO)cc1-c1cncc(Nc2cccc(Cl)c2)n1 [Cmd 107] | > 10 | 1.36 | – | –
18 | Clc1cccc(Nc2cncc(-c3cncc(NCCCN4CCOCC4)c3)n2)c1 [Cmd 34] | > 100 | 0.18 | – | –
19 | CN(C)CCCNC(=O)c1cncc(-c2cncc(Nc3cccc(Cl)c3)n2)c1 [Cmd 37] | > 100 | 5.5 | – | –
20 | COc1cccc(Nc2cncc(-c3cncc(NCCCO)c3)n2)c1 [Cmd 57] | 81.4 | 0.81 | – | –
21 | Clc1cccc(Nc2cncc(-c3cncc(NCCCN4CCNCC4)c3)n2)c1 [Cmd 69] | > 10 | 0.364 | – | –
22 | OCCCNc1cnc(F)c(-c2cncc(Nc3cccc(Cl)c3)n2)c1 [Cmd 106] | > 10 | 0.138 to 0.365 | – | –

Other lines, results leading:

Row | IC50 [1, 3] [µM] | IC50 [2, 4] [µM] | IC50 [1, 5] [µM] | IC50 [2, 6] [µM] | Compound
23 | > 10 | > 10 | – | – | O=C(CCCOc1ccccc1)Nc1cncc(-c2cncc(Nc3cccc(Cl)c3)n2)c1 [Cmd 100]
24 | > 10 | 4.3 | – | – | Clc1cccc(Nc2cncc(-c3cncc(NCc4ccccc4)c3)n2)c1 [Cmd 82]
25 | > 10 | 1.1 | – | – | CCN(CC)C(=O)CNc1cncc(-c2cncc(Nc3cccc(Cl)c3)n2)c1 [Cmd 81]
26 | > 100 | > 100 | – | – | CN(C)c1ccc(C(=O)Nc2cncc(-c3cncc(Nc4cccc(Cl)c4)n3)c2)cc1 [Cmd 42]
27 | > 10 | > 10 | – | – | O=C(COCc1ccccc1)Nc1cncc(-c2cncc(Nc3cccc(Cl)c3)n2)c1 [Cmd 101]
28 | > 10 | 0.93 | – | – | CCOCC(=O)Nc1cncc(-c2cncc(Nc3cccc(Cl)c3)n2)c1 [Cmd 102]
29 | > 10 | > 10 | – | – | O=C(COc1ccccc1)Nc1cncc(-c2cncc(Nc3cccc(Cl)c3)n2)c1 [Cmd 99]
30 | > 10 | 0.99 | – | – | COCCOCC(=O)Nc1cncc(-c2cncc(Nc3cccc(Cl)c3)n2)c1 [Cmd 98]
31 | > 100 | 1.12 | – | – | O=C(Nc1cncc(-c2cncc(Nc3cccc(Cl)c3)n2)c1)c1cccnc1 [Cmd 43]
32 | > 100 | 0.36 | – | – | COCC(=O)Nc1cncc(-c2cncc(Nc3cccc(Cl)c3)n2)c1 [Cmd 41]
33 | > 10 | 0.41 | – | – | O=C(CO)Nc1cncc(-c2cncc(Nc3cccc(Cl)c3)n2)c1 [Cmd 105]
34 | – | 0.295 | – | – | Clc1cccc(Nc2cncc(-c3cncc(NCCCCc4ccncc4)c3)n2)c1 [Cmd 70]
